Measured values taken from PMC10845954, “Novel antimicrobial peptides identified in legume plant, Medicago truncatula” (Microbiology Spectrum, 2024).
Converted amounts (≈) assume the structure as drawn. Where a SMILES comes first, the peptide text is derived from it. Where no end group is shown, it is not given here.

Tests used:
[1] = system: human erythrocytes; assay: Human red blood cell hemolysis; assay type: cell-based; conditions: 100 µM
Description: With a few minor modifications, red blood cell hemolysis was carried out as previously described ([21]). On a 96-well microtiter plate, 100, 10, 1, and 0 µM NCRs, NCR094 and NCR992 were placed in each well, and […] of 1× PBS was carried out across the plate. Each well received an equivalent volume of 1% human erythrocytes that had been re-suspended in PBS after being washed once with PBS (5 minutes by centrifugation at 3,000 × g to prevent non-specific red blood cell lysis). The plate was then incubated at 37°C for 24 hrs.
As negative and positive controls for hemolysis, respectively, PBS alone and 1% sodium hypochlorite alone were utilized. At a wavelength of 405 nm, hemoglobin release was measured, and the hemolytic capability was expressed as a percentage of the sodium hypochlorite control (100%). The normalization equation normalization = NCR average – negative control average was used to compute the hemolysis percentage. Hemolysis percentage = normalization of NCRs ÷ average of positive control × 100. The hemolysis of 20% and above was considered as toxic to human red blood cells as reported previously ([22]). The mean values and standard deviation (SD) for each assay were carried out in triplicate and repeated three times.
Fig 6 The hemolysis % of the NCRs (NCR094 and NCR992) toward human red blood cells. One percent human red blood cells were treated with 100 µM of the NCRs. (A) NCR094 WT, NCR094.1, NCR094.2, and NCR094.3. (B) NCR992 WT, NCR992.1, NCR992.2, and NCR992 for 16 hrs without shaking. One hundred […] of supernatants was transferred into a new 96-well plate, and the absorbance was measured using a plate reader at 405 nm wavelength. Polymyxin B treatment was […] control. The results were represented as average of the % hemolysis and standard deviations from three independent experiments.
Figure S.1. Dose-dependent hemolysis assay for the NCR collection used in this study.
1% Human red blood cells were treated with 10-fold concentration (100, 10, 1, 0 μM) of NCRs A) (NCR094.1, B)
NCR992 WT) C) NCR992.1, D) NCR992.2, and E) NCR992.1for 18 hrs without shaking. […] of supernatants
were transferred into new 96-well plate and the absorbance was measured using a plate reader at 405 nm wavelength.
The results were represented as average of the % hemolysis and error bars were ± SD values from three independent
(also on this page, place not known: 10100 % of Toxicity 10100 80% of Toxicity 10100 % of Toxicity 10100 % of Toxicity 10100 S- % of Toxicity A)

[2] = system: K. pneumoniae ATCC700603; assay type: cell-based, Klebsiella pneumoniae
Description: (§1) Bacterial strains used in the experiment were MRSA ATCC29213 and K. pneumoniae ATCC700603. Three NCRs, NCR094 (GenBank# KEH42094.1), NCR992 (GenBank# KEH8992.1), and NCR888 (GenBank# KEH37888.1), and designed derivatives were supplied from GenScript (United States). MRSA and K. pneumoniae were streaked for colonies on blood agar plates and incubated at 37°C for 18–24 hrs. MRSA and K. pneumoniae’s colonies were cultured in cation-adjusted Mueller–Hinton broth (MHB) media and incubated at 37°C for 18–24 hrs. For the in vitro killing assay and the ex vivo human killing assay, MRSA and K. pneumoniae were cultured on an MHB agar plate for 18 hrs at 37°C.
(§2) A broth microdilution assay in cation-adjusted MHB (MilliporeSigma, United States) was used to determine the minimum inhibitory concentrations (MICs) and the mimium bactericidal concentration (MBCs) of our NCR collection’s NCR094, NCR888, and NCR992. After a final bacterial inoculum of 5 × 10^5 CFU/mL was set and incubated for an overnight period at 37°C, the MIC of the NCRs that prevented MRSA or K. pneumoniae from growing visibly was measured. The MBCs was measured by subculturing the broths used in MIC determination into fresh NCR-free agar plates. The MICs of the NCRs were measured after the NCRs were added to the MRSA or K. pneumoniae cultures and dissolved in sterile distilled water.
The bacterial cultures of MRSA and K. pneumoniae were treated with different concentrations of the synthetic NCRs (MRSA: 25, 12.5, 6.25, 3.125, and 0 µM; K. pneumoniae: 50, 25, 12.5, 6.25, 3.125, and 0 µM). […] Thus, NCR888 in the wild type and the different variants were not included in the downstream assays.

[3] = system: MRSA ATCC29213; assay: Broth microdilution MIC/MBC; assay type: cell-based, Staphylococcus aureus; conditions: tested 25, 12.5, 6.25, 3.125 µM; post-18 hrs of treatment
Description: as §1
as §2, with “water. […]” for “water.”

[4] = system: K. pneumoniae ATCC700603; assay type: cell-based, Klebsiella pneumoniae; conditions: human whole blood, 12.5 µM, 18 hrs 37°C; mean of three independent experiments
Description: The whole killing assay was performed as previously described ([19]). Briefly, freshly drawn peripheral venous whole blood was collected on a heparin tube from healthy adult volunteers. To do this, unchallenged blood with and without NCRs at the MIC (blood from the same individuals) was used. Whole blood was then challenged with MRSA or K. pneumoniae ex vivo and incubated for an overnight period at 37°C. Tenfold serial dilution was plated on MH agar media post-18 hrs treatment ([19]). Killing% was calculated as follows: killing% = CFUs for no treatment − CFUs for NCR treatment ÷ […] × 100. Three independent experiments were performed.
The killing effect of NCRs on MRSA and K. pneumoniae was investigated using an ex vivo whole blood killing assay as a preliminary screening method to discover peptides with potential immune-boosting activity. […] The bactericidal ability (killing%) of human whole blood was monitored by counting the CFUs post-18 hrs, and the killing% was calculated.
Fig 2 Whole blood killing assay of NCR094 in the wild type and the derivatives, ex vivo antimicrobial assay. […] CFUs were calculated to estimate the killing percentage. […]
Fig 4 Whole blood killing assay of NCR992 in the wild type and the derivatives, the ex vivo antimicrobial assay. […] CFUs were calculated to estimate the killing percentage. […]

Molecule | hemolysis % [1] | other results
CC(C)C[C@H](NC(=O)[C@@H](N)Cc1ccc(O)cc1)C(=O)N[C@@H](CCCCN)C(=O)N[C@@H](CS)C(=O)N[C@@H](CCCCN)C(=O)N[C@H](C(=O)N[C@H](C(=O)N[C@@H](Cc1c[nH]cn1)C(=O)N[C@@H](CC(=O)O)C(=O)N[C@@H](CS)C(=O)N1CCC[C@H]1C(=O)N[C@@H](CCCCN)C(=O)O)C(C)C)[C@@H](C)O [NCR094.1] (H-YLKCKTVHDCPK-OH; N-terminus and C-terminus assumed) | 49.38% | –
CC[C@H](C)[C@H](NC(=O)[C@H](CCCCN)NC(=O)[C@@H](NC(=O)[C@H](C)NC(=O)[C@H](CCCNC(=N)N)NC(=O)[C@H](CS)NC(=O)[C@H](Cc1ccc(O)cc1)NC(=O)[C@H](CC(N)=O)NC(=O)CNC(=O)[C@@H](NC(=O)[C@H](CS)NC(=O)[C@H](CCCNC(=N)N)NC(=O)[C@H](Cc1ccc(O)cc1)NC(=O)[C@@H](NC(=O)[C@@H](NC(=O)[C@@H](N)CCC(N)=O)C(C)C)C(C)C)C(C)C)C(C)C)C(=O)N[C@@H](CCCNC(=N)N)C(=O)N[C@@H](CCCNC(=N)N)C(=O)N[C@@H](Cc1c[nH]c2ccccc12)C(=O)N[C@@H](CC(N)=O)C(=O)N[C@@H](CC(C)C)C(=O)NCC(=O)O [NCR094.2] (H-QVVYRCVGNYCRAVKIRRWNLG-OH; N-terminus and C-terminus assumed) | 8.99% | –
CC[C@H](C)[C@H](NC(=O)[C@H](CCCCN)NC(=O)[C@@H](NC(=O)[C@H](C)NC(=O)[C@H](CCCNC(=N)N)NC(=O)[C@H](CS)NC(=O)[C@H](Cc1ccc(O)cc1)NC(=O)[C@H](CC(N)=O)NC(=O)CNC(=O)[C@@H](NC(=O)[C@H](CS)NC(=O)[C@H](CCCNC(=N)N)NC(=O)[C@H](Cc1ccc(O)cc1)NC(=O)[C@@H](NC(=O)[C@@H](NC(=O)[C@H](CCC(N)=O)NC(=O)[C@H](CO)NC(=O)[C@H](CCCCN)NC(=O)[C@@H]1CCCN1C(=O)[C@H](CS)NC(=O)[C@H](CC(=O)O)NC(=O)[C@H](Cc1c[nH]cn1)NC(=O)[C@@H](NC(=O)[C@@H](NC(=O)[C@H](CCCCN)NC(=O)[C@H](CS)NC(=O)[C@H](CCCCN)NC(=O)[C@H](CC(C)C)NC(=O)[C@@H](N)Cc1ccc(O)cc1)[C@@H](C)O)C(C)C)C(C)C)C(C)C)C(C)C)C(C)C)C(=O)N[C@@H](CCCNC(=N)N)C(=O)N[C@@H](CCCNC(=N)N)C(=O)N[C@@H](Cc1c[nH]c2ccccc12)C(=O)N[C@@H](CC(N)=O)C(=O)N[C@@H](CC(C)C)C(=O)NCC(=O)O [NCR094] (H-YLKCKTVHDCPKSQVVYRCVGNYCRAVKIRRWNLG-OH; N-terminus and C-terminus assumed) | 15.41% | minimum inhibitory concentration (MIC) ([2]; ATCC700603): 12.5 µM (≈ 52 µg/mL); minimum bactericidal / killing concentration (MBC), complete killing ([2]; ATCC700603, 18 h): 25 µM
CC[C@H](C)[C@H](NC(=O)[C@H](CCSC)NC(=O)CNC(=O)[C@H](Cc1ccccc1)NC(=O)[C@H](CCC(=O)O)NC(=O)[C@H](CS)NC(=O)[C@@H](N)CCSC)C(=O)N[C@@H](CCCNC(=N)N)C(=O)N[C@@H](CCCNC(=N)N)C(=O)N[C@@H](CS)C(=O)O [NCR992.1] (H-MCEFGMIRRC-OH; N-terminus and C-terminus assumed) | 63.67% | –
CC[C@H](C)[C@H](N)C(=O)N[C@@H](CO)C(=O)N[C@@H](Cc1ccc(O)cc1)C(=O)N[C@@H](CCCCN)C(=O)N[C@@H](CS)C(=O)N[C@@H](CCC(N)=O)C(=O)N[C@@H](CS)C(=O)N[C@@H](Cc1c[nH]cn1)C(=O)N[C@@H](CCC(=O)O)C(=O)N[C@@H](C)C(=O)N[C@@H](Cc1ccc(O)cc1)C(=O)O [NCR992.2] (H-ISYKCQCHEAY-OH; N-terminus and C-terminus assumed) | 66.77% | –
MCWPSFKPRCSNGWCVCDKIMP [NCR888, wild-type nodule-specific cysteine-rich peptide of Medicago truncatula, 22 residues, chemically synthesized] | – | inhibition or killing of MRSA (in words) [3]: did not inhibit or kill; inhibition or killing of K. pneumoniae (in words) ([2]; tested 50, 25, 12.5, 6.25, 3.125 µM, post-18 hrs of treatment): did not inhibit or kill
MSEFGMIRRSISYKSQSHEAY [NCR992.3] | 93.34% | –
YLKSKTVHDSPKSQVVYRSVGNYCRAVKIRRWNLG [NCR094.3] | 0.69% | Killing% of K. pneumoniae ex vivo [4]: relatively similar killing activity
